Where two headings read alike, the source gives them in different places.

Results on 20 molecules are retold here after US8679514B2, “Fungicidal mixtures based on azolopyrimidinylamines” (BASF SE, priority 2005, dated 2014).

Assay [1] deals with Plasmopara viticola. Description: whole plant or invertebrate. The format is in vivo. Particulars: read-out: Observed activity (%).
The subject of assay [2] is Pyricularia oryzae. Description: microbe, parasite or virus in culture. The format is cell-based. To be noted: Pyricularia oryzae, read-out: Observed activity (%).
Assay [3] deals with Phytophthora infestans. Briefly: microbe, parasite or virus in culture. The format is cell-based. To be noted: for inhibition at 0.25 µg/mL / inhibition at 1 µg/mL / inhibition at […] / inhibition at 0.016 µg/mL: Phytophthora infestans, read-out: Observed activity (%).
In assay [4] the test system is Botrytis cinerea. Briefly: Activity against the gray mold pathogen Botrytis cinerea in the microtiter test. To be noted: Botrytis cinerea, single active compound, read-out: Observed activity (%); for inhibition at […]: Conc. 0.063 mg/l; for inhibition at 1 µg/mL: Conc. 1 mg/l; for inhibition at 16 µg/mL: Conc. 16 mg/l; for inhibition at 0.25 µg/mL: Conc. 0.25 mg/l. The format is cell-based.

The subject of assay [5] is Phytophthora infestans. Description: whole plant or invertebrate. The format is in vivo. To be noted: 144 h, read-out: Efficacy in % of the untreated control.
Assay [6] concerns Phytophthora infestans. Description: whole plant or invertebrate. The format is in vivo. To be noted: for Observed activity (%): in vivo.
For assay [7], the system named is Plasmopara viticola. Description: whole plant or invertebrate. The format is in vivo. To be noted: read-out: Observed activity (%). This is another data set of the same source.
Assay [8] deals with Septoria tritici. Briefly: Activity against the speckled leaf blotch pathogen Septoria tritici in the microtiter test. The format is cell-based. To be noted: single active compound.

Turning to `CC1(c2ccc(Oc3ccccc3)cc2)OC(=O)N(Nc2ccccc2)C1=O` (racemic) [famoxadone, (RS)-3-anilino-5-methyl-5-(4-phenoxyphenyl)-1,3-oxazolidine-2,4-dione], in assay [1], the inhibition at 4 µg/mL stood at 0%.

In the case of `Cc1nc2ncnn2c(N)c1-c1ccc(C(C)(C)C)cc1` [Compound I-18, 6-(4-tert-butylphenyl)-5-methyl-[1,2,4]triazolo[1,5-a]pyrimidin-7-ylamine], in assay [2], the inhibition at 0.25 µg/mL was found to be 15%, the inhibition at 1 µg/mL came out at 15%, the inhibition at 4 µg/mL was 18% and the inhibition at 16 µg/mL amounted to 29%. In assay [3], the inhibition at 0.25 µg/mL worked out at 16%, the inhibition at 1 µg/mL is 45% and the inhibition at […] was determined as 6%. For the same molecule, in assay [4], the inhibition at […] worked out at 6%, the inhibition at 1 µg/mL worked out at 8% and the inhibition at 16 µg/mL is 11%. Moreover, the pest or weed control at 16 ppm in assay [5] was 11%.

As to `CCCCCCCCc1c(C)nc2ncnn2c1N` [Compound I-25, 5-methyl-6-octyl-[1,2,4]triazolo[1,5-a]pyrimidin-7-ylamine], the inhibition at 1 µg/mL in assay [2] stood at 24%. For the same molecule, in assay [3], the inhibition at 0.25 µg/mL was 5%, the inhibition at 1 µg/mL amounted to 13% and the inhibition at […] turned out to be 4%. In assay [4], the inhibition at 0.25 µg/mL stood at 5%. The pest or weed control at 16 ppm in assay [5] turned out to be 0%.

Regarding `Cc1nc2ncnn2c(N)c1CCC(C)CC(C)(C)C` (centres unmarked) [Compound I-28, 5-methyl-6-(3,5,5-trimethylhexyl)-[1,2,4]triazolo[1,5-a]pyrimidin-7-ylamine], in assay [2], the inhibition at 0.25 µg/mL was found to be 12% and the inhibition at 1 µg/mL was found to be 13%. Besides, in assay [3], the inhibition at 0.016 µg/mL came out at 0%, the inhibition at 0.25 µg/mL was determined as 14%, the inhibition at 1 µg/mL was found to be 24% and the inhibition at […] worked out at 0%. Besides, in assay [4] (Conc. 4 mg/l), the inhibition at 4 µg/mL came to 0%. Besides, the pest or weed control at 63 ppm in assay [5] is 44%.

As to `CCCCCCCCc1c(CC)nc2ncnn2c1N` [Compound I-110, 5-ethyl-6-octyl-[1,2,4]triazolo[1,5-a]pyrimidin-7-ylamine], the inhibition at 4 µg/mL in assay [6] (Phytophthora infestans, read-out: Observed activity (%)) came to 11%. For the same molecule, in assay [2], the inhibition at 16 µg/mL came out at 8%. In addition, in assay [1], the inhibition at 0.25 µg/mL turned out to be 0% and the inhibition at 4 µg/mL was 0%. For the same molecule, in assay [3], the inhibition at 0.016 µg/mL was determined as 1%, the inhibition at 0.25 µg/mL stood at 5%, the inhibition at 1 µg/mL was 59% and the inhibition at […] is 3%. Also, the inhibition at 4 µg/mL in assay [7] came to 0%. Also, in assay [4], the inhibition at […] stood at 8% and the inhibition at 0.25 µg/mL turned out to be 18%.

With `CCCCCCCCc1c(CC)nc2nc(N)nn2c1N` [Compound I-120, 5-ethyl-6-octyl-[1,2,4]triazolo[1,5-a]pyrimidine-2,7-diamine], the inhibition at […] in assay [8] (Zymoseptoria tritici, 0.063 mg/l, read-out: Observed activity (%)) came to 0%. In addition, the inhibition at 16 µg/mL in assay [2] worked out at 25%. In addition, in assay [3], the inhibition at 0.016 µg/mL is 0%, the inhibition at 0.25 µg/mL was determined as 6% and the inhibition at […] was 2%. Moreover, in assay [4], the inhibition at […] came to 0%, the inhibition at 1 µg/mL turned out to be 9% and the inhibition at 16 µg/mL stood at 15%. Moreover, the pest or weed control at 16 ppm in assay [5] came to 33%.

As for `CCCCCCCCc1c(CCC)nc2ncnn2c1N` [Compound I-180, 6-octyl-5-propyl-[1,2,4]triazolo[1,5-a]pyrimidin-7-ylamine], the inhibition at 1 µg/mL in assay [2] is 15%. In assay [3], the inhibition at 0.016 µg/mL came out at 0%, the inhibition at 0.25 µg/mL amounted to 8%, the inhibition at 1 µg/mL was determined as 17% and the inhibition at […] was determined as 2%. Besides, in assay [4] (Conc. 0.016 mg/l), the inhibition at 0.016 µg/mL amounted to 3%. Also, in assay [4], the inhibition at 0.25 µg/mL was found to be 13%. Besides, in assay [5], the pest or weed control at 16 ppm was 0% and the pest or weed control at 63 ppm is 33%.

As to `CCCCCCCCc1c(COC)nc2ncnn2c1N` [Compound I-245, 5-methoxymethyl-6-octyl-[1,2,4]triazolo[1,5-a]pyrimidin-7-ylamine], in assay [2], the inhibition at 0.25 µg/mL came to 10% and the inhibition at 16 µg/mL was determined as 23%. In addition, in assay [3], the inhibition at 0.016 µg/mL is 0%, the inhibition at 0.25 µg/mL was found to be 12% and the inhibition at […] was 0%. The inhibition at 0.25 µg/mL in assay [4] was determined as 0%. In assay [5], the pest or weed control at 4 ppm stood at 0%.

Take `[Cu+2].[OH-].[OH-]` [Cu(OH)2, copper hydroxide, reference compound]: the “Observed activity (%)” value turned out to be 11% in assay [6] and 2% in assay [3].

Turning to `COC(=O)NCc1cc(C(C)=NOCc2cccc(C)c2)ccc1Cl` [[B-6], methyl (2-chloro-5-[1-(3-methylbenzyloxyimino)-ethyl]benzyl)carbamate, reference compound], the inhibition at 16 µg/mL in assay [1] was 0%; in assay [4], 53%. Also, in assay [3], the inhibition at 0.25 µg/mL was 10%.

In the case of `COC(=O)CC(NC(=O)C(NC(=O)OC(C)C)C(C)C)c1ccc(Cl)cc1` (centres unmarked) [[E-7], methyl 3-(4-chlorophenyl)-3-(2-isopropoxycarbonylamino-3-methyl-butyrylamino)propanoate], the inhibition at 0.25 µg/mL in assay [1] stood at 0%.

`Cc1c(Br)c2ccc(F)cc2n1S(=O)(=O)c1ncn(S(=O)(=O)N(C)C)n1` [amidosulbrom, N,N-dimethyl-3-(3-bromo-6-fluoro-2-methylindole-1-sulfonyl)-[1,2,4]triazole-1-sulfonamide]: the inhibition at 4 µg/mL in assay [1] was 22%.

In the case of `CCNC(=O)NC(=O)C(C#N)=NOC` [cymoxanil, 1-(2-cyano-2-methoxyiminoacetyl)-3-ethylurea, reference compound], the inhibition at 16 µg/mL came to 12% in assay [2] and 33% in assay [7].

Consider `COc1ccc(C(=CC(=O)N2CCOCC2)c2ccc(Cl)cc2)cc1OC` [dimethomorph, 3-(4-chlorophenyl)-3-(3,4-dimethoxyphenyl)-1-morpholin-4-ylpropenone, reference compound], for which the inhibition at 16 µg/mL in assay [7] was determined as 67%. In addition, the pest or weed control at 4 ppm in assay [5] is 33%.

Turning to `N#Cc1sc2c(=O)c3ccccc3c(=O)c=2sc1C#N` [dithianon, 5,10-dioxo-5,10-dihydronaphtho[2,3-b][1,4]dithiin-2,3-dicarbonitrile], in assay [7], the inhibition at 16 µg/mL worked out at 0%.

For the molecule `CCNc1nc(CC)c(C(=O)NC(C#N)c2cccs2)s1` (centres unmarked) [ethaboxam, N-(cyano-2-thienylmethyl)-4-ethyl-2-(ethylamino)-5-thiazolcarboxamide], the inhibition at 0.25 µg/mL in assay [1] amounted to 33%.

In the case of `Cc1ccc(C(C)NC(=O)[C@@H](NC(=O)OC(C)C)C(C)C)cc1` (stereo partly drawn) [iprovalicarb, isopropyl [(1S)-2-methyl-1-(1-p-tolylethylcarbamoyl)propyl]carbamate], the inhibition at 4 µg/mL in assay [1] was found to be 0%.

Take `CCC(=O)C1=C([O-])CC(C(=O)[O-])CC1=O.[Ca+2]` (centres unmarked) [prohexadione-Ca, reference compound]: in assay [8] (0.25 mg/l), the “Observed activity (%)” value is listed as 5%.

For “manganese ethylenebis(dithiocarbanate) zinc complex [mancozeb]”, in assay [6], the “Observed activity (%)” value is 11%.

In the case of “phosphorous acid disodium salt [phosphorous acid disodium salt (Na2HPO3), reference compound]”, the entries for the “Observed activity (%)” value in assay [6] and in assay [3] were 33% and 6%, respectively.
